Measurements taken from article PMC7017366, “Glucose Uptake Stimulatory and PTP1B Inhibitory Activities of Pimarane Diterpenes from Orthosiphon stamineus Benth” (Biomolecules, 2019).
“Also recorded” adds a separate entry of the source.

Key:
PTP1B = tested on: PTP1B; parameters: method as in PMID 23604820; conditions: very low IC50 values; cited from earlier work
[1] = target: T1, Protein tyrosine phosphatase 1B (human recombinant) (Homo sapiens, UniProt P18031); assay: Determination of the inhibition mode (Lineweaver–Burk and Dixon plots); format: biochemical; conditions: p-NPP substrate; for Ki: Dixon plot; for Inhibition Type: Lineweaver–Burk and Dixon plots
T1 construct: purchased Biomol International LP, Plymouth Meeting, PA, USA
T1 sequence (P18031 1-435): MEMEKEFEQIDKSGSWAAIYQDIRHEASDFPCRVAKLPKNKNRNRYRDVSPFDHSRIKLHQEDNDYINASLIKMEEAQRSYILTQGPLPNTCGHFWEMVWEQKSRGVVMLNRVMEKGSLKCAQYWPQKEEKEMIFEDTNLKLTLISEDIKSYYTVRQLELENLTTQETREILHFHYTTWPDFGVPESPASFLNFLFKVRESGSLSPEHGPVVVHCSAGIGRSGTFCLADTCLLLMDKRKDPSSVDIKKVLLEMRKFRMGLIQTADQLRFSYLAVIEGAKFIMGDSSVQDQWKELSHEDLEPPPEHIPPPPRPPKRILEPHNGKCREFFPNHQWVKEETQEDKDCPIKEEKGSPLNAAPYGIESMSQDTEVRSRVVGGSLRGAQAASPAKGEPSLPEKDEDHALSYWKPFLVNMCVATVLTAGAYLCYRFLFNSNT
Text: The Sigma plot program was used to analyze both the double reciprocal Lineweaver–Burk plot and the Dixon plot by plotting 1/v as a function of the inhibitor (I). […] Table 1 lists the Ki values for these active compounds.
Victor3 V 1420 Multilabel Plate Counter at an excitation and emission wavelength of 485 nm and 535 nm, […]
(§1) Protein tyrosine phosphatase 1B (human recombinant) was purchased from Biomol International LP, Plymouth Meeting, PA, USA, and the inhibitory activities of the tested samples were evaluated using the method as described in [31]. Briefly, 0.05−0.1 µg of PTP1B (BIOMOL International L.P., Plymouth Meeting, PA, USA) and 4 mM p-NPP in a buffer containing 1 mMdithiothreitol, 0.1 M NaCl, 1 mM EDTA, and 50 mM citrate (pH 6.0), with or without test compounds, were added as 100 µL of a final volume to each of the 96 wells. After the reaction mixture was incubated at 37 °C for 30 min, 10 M NaOH was added to quench the reaction. PTP1B enzyme activity was determined by the amount of produced p-nitrophenol at 405 nm. […]
contain the PTP1B enzyme.
Determination of the Inhibition Mode of Active Compounds
The Lineweaver–Burk plot and Dixon plot experiments were carried out in the presence and absence of the inhibitors with various concentrations of p-NPP as the substrate. The inhibition modes of the tested compounds were assessed on the basis of their inhibitory effects on the Km ([…]) and Vmax (maximum reaction velocity) of the enzyme, which were determined by the Lineweaver–Burk plot experiment. The Lineweaver–Burk plot is the double reciprocal plot of the enzyme reaction velocity ( V) versus the substrate ( p-NPP) concentration (1/ V versus 1/( p-NPP)).
(§2) Data are represented as means ± SD of at least three independent experiments performed in triplicated assays and determined by regression analysis. For statistical analysis of the data for single comparison, the significance between means was determined by the Student’s t test. Sigma Plot program version 11.0 was used for analysis of the kinetic data.

3T3-L1 adipocytes = assay: Adipocyte-based measurement of 2-NBDG uptake; format: cell-based
Text: DM is a metabolic ailment that is categorized by glucose intolerance and deviations of lipid and protein metabolism processes. Previously, 2-NBDG was used as a potential agent to evaluate the action of compounds as insulin mimickers. In our experiment, we examined the activity of the pimarane diterpenes 1–7 on 2-NBDG uptake in the 3T3-L1 adipocytes model. […] Among them, compounds 1, 3, 5, 6, and 7 theoretically stimulated glucose uptake by 1.45–1.51-, 1.56–1.68-, 1.55–1.66-, 1.72–1.83-, and 1.67–1.75-fold of inductions, respectively (Figure 2).
Figure 2 The action of pimarane diterpenes (1–7) on 2-NBDG uptake. Compounds concentrations were 5 and 10 µM; Insulin (100 nM); Control (DMSO). The glucose uptake effect was expressed as the mean ± standard deviation (SD) of three replicates. Statistical significance was accessed by Duncan’s multiple range tests (* p < 0.01; ** p < 0.05). […]
Cell Culture and Induction of 3T3-L1 Adipocytes
3T3-L1 cells were purchased from American Type Culture Collection (ATCC, Manassas, VA, USA) and grown in DMEM with 10% FCS. To induce differentiation, 3T3-L1 pre-adipocytes were cultured until confluence was reached (0 day), and the culture medium was replaced with a fresh induction medium containing 5 µg/mL insulin, 0.5 mM 3-isobutyl-1-methylxanthine (IBMX), and 1 µM dexamethasone (DEX) […]
in DMEM with 10% FBS for 2 days. […]
Adipocyte-Based Measurement of 2-NBDG Uptake
3T3-L1 adipocytes grown in black 96-well plates were incubated with each sample for 24 h at 37 °C in a 5% CO2 atmosphere. Subsequently, 250 µM 2-NBDG (dissolved in PBS with 1% BSA) was added to the cells and incubated for a further 30 min. After incubation, cells were washed two times with PBS to remove excess fluorescence in the wells. Then, fluorescence retained by the cells was measured using a PerkinElmer […]

[2] = target: T1, Protein tyrosine phosphatase 1B (human recombinant); assay: PTP1B inhibition assay (p-NPP substrate); format: biochemical; conditions: read-out: IC50 PTP1B inhibitory activity
Text: PTP1B dephosphorylates IR and IRS in the insulin signaling pathway as a negative regulator. In the leptin signaling pathway, PTP1B presented the same manner of tyrosine Janus kinase 2. Thus, inhibition of PTP1B activity might improve the IR and IRS, leading to the enhancement of glucose uptake in adipocyte cells. […]
as §1
contain the PTP1B enzyme. […]
as §2

Row | Compound | Ki [1] | Inhibition Type [1] | IC50 [2] | PTP1B inhibition (in words) (PTP1B) | 2-NBDG uptake, fold of induction (3T3-L1 adipocytes; range over 5 and 10 µM) | other results
1 | C=C[C@]1(C)C=C2C(=O)C[C@H]3[C@@](C)(CCC[C@@]3(C)C(=O)O)[C@@H]2CC1 [7-oxo-ent-pimara-8(14),15-diene-19-oic acid] | – | – | – | significantly inhibited | – | –
2 | C=C[C@]1(C)C=C2C(CC1)[C@]1(C)CCC[C@@](C)(C(=O)O)C1C[C@@H]2O (stereo partly drawn) [7β-hydroxy-ent-pimara-8(14),15-diene-19-oic acid] | – | – | – | significantly inhibited | – | –
3 | C=CC1(C)CCC2C(O)(CCC3C(C)(CO)CCCC32C)C1 (stereo not drawn) [8α-hydroxy-ent-pimara-15-en-19-ol] | – | – | – | significantly inhibited | – | –
4 | C=CC1(C)CC(OC(=O)c2ccccc2)C2C(O)(C1=O)C(O)CC1C(C)(C)C(OC(C)=O)C(OC(C)=O)C(OC(=O)c3ccccc3)C12CO (stereo not drawn) [Compound 1, siphonol B] | 52.4 ± 0.9 µM | mixed-competitive inhibitor; also recorded: mixed-competitive inhibition | 8.18 ± 0.41 µM | – | 1.45–1.51 fold | –
5 | C=C[C@@]1(C)C[C@@H](OC(=O)c2ccccc2)[C@H]2[C@](O)(C1=O)[C@H](OC(C)=O)C[C@H]1C(C)(C)[C@H](OC(C)=O)[C@H](O)[C@H](OC(=O)c3ccccc3)[C@@]12C [Compound 3, orthosiphol B] | 75.6 ± 1.7 µM | non-competitive inhibition | 9.84 ± 0.33 µM | – | 1.56–1.68 fold | 2-NBDG uptake, fold of induction (3T3-L1 adipocytes; 5 μM): 1.56 ± 0.09 fold
6 | C=C1C[C@@]23CC[C@H]4[C@@](C)(CCC[C@@]4(C)C(=O)O)[C@@H]2CC[C@@H]1C3 [ent-kaur-16-en-19-oic-acid] | – | – | – | significantly inhibited | – | –
7 | C=C[C@]1(C)C=C2CCC3[C@@](C)(CCC[C@@]3(C)C(=O)O)C2CC1 (stereo partly drawn) [ent-pimara-8(14),15-diene-19-oic acid] | – | – | – | significantly inhibited | – | –
8 | C=CC1(C)C=C2CCC3C(C)(CO)CCCC3(C)C2CC1 (stereo not drawn) [ent-pimara-8(14),15-diene-19-ol] | – | – | – | significantly inhibited | – | –
9 | insulin | – | – | – | – | – | 2-NBDG uptake, fold of induction (3T3-L1 adipocytes; positive control at 100 nM): 1.55 ± 0.07 fold

The next lines start with results.

Row | Ki [1] | Inhibition Type [1] | IC50 [2] | Compound | PTP1B inhibition (in words) (PTP1B) | 2-NBDG uptake, fold of induction (3T3-L1 adipocytes; range over 5 and 10 µM) | other results
10 | – | – | 24.7 ± 1.12 µM | C=CC1(C)CC(OC(=O)c2ccccc2)C2C(O)(C1=O)C(O)CC1C(C)(C)C(OC(C)=O)C(OC(C)=O)C(OC(=O)c3ccccc3)C12COC(C)=O (stereo not drawn) [Compound 2, siphonol D] | – | 1.24–1.33 fold | –
11 | – | – | 27.6 ± 2.99 µM | C=C[C@@]1(C)C[C@@H](OC(=O)c2ccccc2)[C@H]2[C@](O)(C1=O)[C@H](O)C[C@H]1C(C)(C)[C@H](OC(C)=O)[C@H](OC(C)=O)[C@H](OC(=O)c3ccccc3)[C@@]12C [Compound 4, orthosiphol F] | – | 1.28–1.35 fold | –
12 | 23.9 ± 1.2 µM | non-competitive inhibition | 3.82 ± 0.2 µM | C=C[C@@]1(C)C[C@@H](O)[C@H]2[C@](O)(C1=O)[C@H](O)C[C@H]1C(C)(C)[C@H](OC(C)=O)[C@H](OC(C)=O)[C@H](OC(=O)c3ccccc3)[C@@]12C [Compound 5, orthosiphol G] | – | 1.55–1.66 fold | 2-NBDG uptake, fold of induction (3T3-L1 adipocytes; 5 μM): 1.55 ± 0.02 fold
13 | 1.3 ± 0.6 µM | competitive inhibition | 0.33 ± 0.07 µM | C=C[C@@]1(C)CC(=O)[C@H]2[C@](O)(C1=O)[C@H](O)C[C@H]1C(C)(C)[C@H](OC(C)=O)[C@H](OC(C)=O)[C@H](OC(=O)c3ccccc3)[C@@]12C [Compound 6, orthosiphol I] | – | 1.72–1.83 fold | 2-NBDG uptake, fold of induction (3T3-L1 adipocytes; 5 μM): 1.72 ± 0.11 fold
14 | 5.5 ± 0.1 µM | uncompetitive inhibition | 1.6 ± 0.17 µM | C=CC1(C)CC(=O)C2C(O)(C1=O)C(O)CC1C(C)(C)C(OC(=O)c3ccccc3)C(OC(C)=O)C(OC(=O)c3ccccc3)C12C (stereo not drawn) [Compound 7, orthosiphol N] | – | 1.67–1.75 fold | 2-NBDG uptake, fold of induction (3T3-L1 adipocytes; 5 μM): 1.67 ± 0.08 fold
15 | – | mixed-competitive inhibitor | – | C[C@H]1[C@H](C)CC[C@]2(C(=O)O)CC[C@]3(C)C(=CC[C@@H]4[C@@]5(C)CC[C@H](O)C(C)(C)[C@@H]5CC[C@]43C)[C@H]12 [Ursolic acid, reference compound] | – | – | –
